ChEMBL document CHEMBL4814047, “Design, synthesis and biological activity of N-(amino)piperazine-containing benzothiazinones against Mycobacterium tuberculosis” (Eur J Med Chem, 2021)
In brackets after ≈: the same amount, converted by molar mass.

Key:
[1] = tested on: Mycobacterium tuberculosis; assay: Antimycobacterial activity against Mycobacterium tuberculosis H37Rv ATCC 27294 incubated for 7 days by microplate alamar blue assay; assay type: functional; settings: H37Rv ATCC 27294, 168 h, time 7 day
hERG (KCNH2) = hERG (KCNH2) (Homo sapiens, UniProt Q12809); assay: Inhibition of human ERG expressed in HEK293 cells at 10 uM by whole cell patch clamp method relative to control; assay type: cell-based; settings: HEK293 cells expressing hERG
hERG (KCNH2), sequence (Q12809 whole entry): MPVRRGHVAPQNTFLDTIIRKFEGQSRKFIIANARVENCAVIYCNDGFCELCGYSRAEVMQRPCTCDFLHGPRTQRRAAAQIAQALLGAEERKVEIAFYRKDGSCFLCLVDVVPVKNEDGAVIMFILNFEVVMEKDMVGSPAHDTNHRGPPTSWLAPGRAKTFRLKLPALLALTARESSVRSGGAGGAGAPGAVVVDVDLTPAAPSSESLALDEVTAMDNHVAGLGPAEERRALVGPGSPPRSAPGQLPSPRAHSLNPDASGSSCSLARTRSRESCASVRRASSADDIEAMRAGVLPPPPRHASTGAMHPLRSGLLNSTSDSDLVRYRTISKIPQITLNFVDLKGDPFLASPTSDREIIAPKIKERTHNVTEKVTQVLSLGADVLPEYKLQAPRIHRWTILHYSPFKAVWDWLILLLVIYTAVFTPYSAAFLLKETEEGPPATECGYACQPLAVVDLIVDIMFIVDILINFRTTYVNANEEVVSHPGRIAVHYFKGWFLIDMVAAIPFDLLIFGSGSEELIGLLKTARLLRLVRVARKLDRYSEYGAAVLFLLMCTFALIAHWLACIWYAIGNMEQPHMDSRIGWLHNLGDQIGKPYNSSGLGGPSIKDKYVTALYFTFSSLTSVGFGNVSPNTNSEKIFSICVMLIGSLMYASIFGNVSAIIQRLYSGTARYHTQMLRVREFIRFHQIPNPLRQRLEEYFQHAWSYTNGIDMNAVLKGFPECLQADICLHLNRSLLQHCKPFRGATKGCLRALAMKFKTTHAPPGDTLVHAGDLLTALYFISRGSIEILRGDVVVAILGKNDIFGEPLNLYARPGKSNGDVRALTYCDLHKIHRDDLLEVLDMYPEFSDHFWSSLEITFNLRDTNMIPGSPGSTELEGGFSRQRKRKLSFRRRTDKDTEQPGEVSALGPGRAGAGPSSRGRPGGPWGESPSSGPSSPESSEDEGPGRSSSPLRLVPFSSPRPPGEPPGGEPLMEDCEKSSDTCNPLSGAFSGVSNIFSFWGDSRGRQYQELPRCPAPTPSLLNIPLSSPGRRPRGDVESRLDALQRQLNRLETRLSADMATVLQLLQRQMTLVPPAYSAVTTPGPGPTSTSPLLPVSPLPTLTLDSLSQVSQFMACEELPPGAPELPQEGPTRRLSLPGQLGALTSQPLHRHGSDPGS

[2] = Cytotoxicity against African green monkey Vero cells incubated for 72 hrs by MTT assay; assay type: cell-based; settings: chlorocebus sabaeus
[3] = Half life in ICR mouse at 25 mg/kg, po measured upto 24 hrs by HPLC analysis; assay type: ADME, organism-based; settings: in vivo
[4] = Cmax in ICR mouse at 25 mg/kg, po measured upto 24 hrs by HPLC analysis; assay type: ADME, organism-based; set-up: route oral, dose 25 mg/kg, time <=24; settings: in vivo
[5] = MRT in ICR mouse at 25 mg/kg, po measured upto 24 hrs by HPLC analysis; assay type: ADME, organism-based; settings: in vivo
[6] = Tmax in ICR mouse at 25 mg/kg, po measured upto 24 hrs by HPLC analysis; assay type: ADME, organism-based; settings: in vivo
[7] = AUC (0 to infinity) in ICR mouse at 25 mg/kg, po measured upto 24 hrs by HPLC analysis; assay type: ADME, organism-based; set-up: route oral, dose 25 mg/kg, time <=24; settings: in vivo

SMILES | MIC [1] [µg/mL] | CC50 at 72 h [2] [µg/mL] | other results
O=c1nc(N2CCN(/N=C/c3ccc(OC(F)(F)F)cc3)CC2)sc2c([N+](=O)[O-])cc(C(F)(F)F)cc12 | < 0.016 | > 64 | inhibition at 10 µM (hERG (KCNH2)): 88.2%
O=c1nc(NN2CCN(Cc3ccncc3)CC2)sc2c([N+](=O)[O-])cc(C(F)(F)F)cc12 | > 1 |  | 
CC(NN1CCN(c2nc(=O)c3cc(C(F)(F)F)cc([N+](=O)[O-])c3s2)CC1)c1ccc(OC(F)(F)F)cc1 (stereo unspecified) | < 0.016 | > 64 | 
O=c1nc(N2CCN(Nc3ccc(C(F)(F)F)cc3)CC2)sc2c([N+](=O)[O-])cc(C(F)(F)F)cc12 | < 0.016 | > 64 | 
O=c1nc(N2CCN(NCc3ccc(Br)cc3)CC2)sc2c([N+](=O)[O-])cc(C(F)(F)F)cc12 | < 0.016 | > 64 | 
O=c1nc(N2CCN(NCc3ccc(F)cc3)CC2)sc2c([N+](=O)[O-])cc(C(F)(F)F)cc12 | < 0.016 | > 64 | 
COc1ccc(CNN2CCN(c3nc(=O)c4cc(C(F)(F)F)cc([N+](=O)[O-])c4s3)CC2)cc1 | < 0.016 | > 64 | 
NN1CCN(c2nc(=O)c3cc(C(F)(F)F)cc([N+](=O)[O-])c3s2)CC1 | 0.941 (≈ 2.51 µM) |  | 
CC(C)CN(CC(C)C)N1CCN(c2nc(=O)c3cc(C(F)(F)F)cc([N+](=O)[O-])c3s2)CC1 | < 0.016 | > 64 | 
O=c1nc(N2CCN(NCc3ccc(OC(F)(F)F)cc3)CC2)sc2c([N+](=O)[O-])cc(C(F)(F)F)cc12 | < 0.016 | > 64 | inhibition at 10 µM (hERG (KCNH2)): 71.1%
O=C(C1CCCCC1)N1CCN(Nc2nc(=O)c3cc(C(F)(F)F)cc([N+](=O)[O-])c3s2)CC1 | > 1 |  | 
O=C(NN1CCN(c2nc(=O)c3cc(C(F)(F)F)cc([N+](=O)[O-])c3s2)CC1)c1ccc(C(F)(F)F)cc1 | 0.589 (≈ 1.08 µM) |  | 
O=c1nc(N2CCN(Nc3ccc(OC(F)(F)F)cc3)CC2)sc2c([N+](=O)[O-])cc(C(F)(F)F)cc12 | < 0.016 | > 64 | inhibition at 10 µM (hERG (KCNH2)): 55.5%
O=c1nc(N2CCN(NCc3ccc(Cl)cc3)CC2)sc2c([N+](=O)[O-])cc(C(F)(F)F)cc12 | < 0.016 | > 64 | 
Cc1cccc(F)c1CNN1CCN(c2nc(=O)c3cc(C(F)(F)F)cc([N+](=O)[O-])c3s2)CC1 | < 0.016 | > 64 | 
CN(c1ccc(OC(F)(F)F)cc1)N1CCN(c2nc(=O)c3cc(C(F)(F)F)cc([N+](=O)[O-])c3s2)CC1 | < 0.016 | > 64 | half-life [3]: 3.6 h; Cmax [4]: 1100 ng/mL; MRT [5]: 4.34 h; inhibition at 10 µM (hERG (KCNH2)): 45.6%; Tmax [6]: 0.667 h; AUC(0-inf) [7]: 4700 ng·h/mL
O=c1nc(N2CCN(NC3CCCCC3)CC2)sc2c([N+](=O)[O-])cc(C(F)(F)F)cc12 | < 0.016 | > 64 | half-life [3]: 1.28 h; Cmax [4]: 1960 ng/mL; MRT [5]: 1.47 h; inhibition at 10 µM (hERG (KCNH2)): 20.4%; Tmax [6]: 0.583 h; AUC(0-inf) [7]: 4430 ng·h/mL
CON=C1CCC(N(C)N2CCN(c3nc(=O)c4cc(C(F)(F)F)cc([N+](=O)[O-])c4s3)CC2)CC1 (stereo unspecified) | < 0.016 | > 64 | half-life [3]: 4.09 h; Cmax [4]: 5140 ng/mL; MRT [5]: 3.89 h; inhibition at 10 µM (hERG (KCNH2)): 22.7%; Tmax [6]: 0.5 h; AUC(0-inf) [7]: 15800 ng·h/mL
O=c1nc(N2CCN(NCc3cccnc3)CC2)sc2c([N+](=O)[O-])cc(C(F)(F)F)cc12 | 0.228 (≈ 0.489 µM) |  | 
O=c1nc(NN2CCN(Cc3ccc(OC(F)(F)F)cc3)CC2)sc2c([N+](=O)[O-])cc(C(F)(F)F)cc12 | > 1 |  | 
Cc1ccc(CNN2CCN(c3nc(=O)c4cc(C(F)(F)F)cc([N+](=O)[O-])c4s3)CC2)cc1 | < 0.016 | > 64 | 
CN(CC1CCCCC1)N1CCN(c2nc(=O)c3cc(C(F)(F)F)cc([N+](=O)[O-])c3s2)CC1 | < 0.016 | > 64 | inhibition at 10 µM (hERG (KCNH2)): 54.6%
O=c1nc(N2CCN(NCC3CCCC3)CC2)sc2c([N+](=O)[O-])cc(C(F)(F)F)cc12 | < 0.016 | > 64 | 

SMILES | MIC [1] [µg/mL] | CC50 at 72 h [2] [µg/mL] | other results
O=C(NN1CCN(c2nc(=O)c3cc(C(F)(F)F)cc([N+](=O)[O-])c3s2)CC1)C1CCCCC1 | 0.473 (≈ 0.974 µM) |  | 
O=c1nc(NN2CCN(CC3CCCCC3)CC2)sc2c([N+](=O)[O-])cc(C(F)(F)F)cc12 | > 1 |  | 
CON=C1CCC(CN(C)N2CCN(c3nc(=O)c4cc(C(F)(F)F)cc([N+](=O)[O-])c4s3)CC2)CC1 (stereo unspecified) | 0.025 (≈ 0.0473 µM) |  | 
O=c1nc(N2CCN(NCc3cccc(C(F)(F)F)c3)CC2)sc2c([N+](=O)[O-])cc(C(F)(F)F)cc12 | < 0.016 | > 64 | 
CC(c1ccc(OC(F)(F)F)cc1)N(C)N1CCN(c2nc(=O)c3cc(C(F)(F)F)cc([N+](=O)[O-])c3s2)CC1 (stereo unspecified) | < 0.016 | > 64 | half-life [3]: 3.89 h; Cmax [4]: 944 ng/mL; MRT [5]: 2.66 h; inhibition at 10 µM (hERG (KCNH2)): 46.9%; Tmax [6]: 0.833 h; AUC(0-inf) [7]: 2870 ng·h/mL
O=c1nc(N2CCN(NCC3CCCCC3)CC2)sc2c([N+](=O)[O-])cc(C(F)(F)F)cc12 | < 0.016 | 29.3 (≈ 62.1 µM) | inhibition at 10 µM (hERG (KCNH2)): 64.4%
C/C(=N\N1CCN(c2nc(=O)c3cc(C(F)(F)F)cc([N+](=O)[O-])c3s2)CC1)c1ccc(OC(F)(F)F)cc1 | < 0.016 | > 64 | 
O=c1nc(N2CCN(N(CC3CCCC3)CC3CCCC3)CC2)sc2c([N+](=O)[O-])cc(C(F)(F)F)cc12 | 0.0803 (≈ 0.149 µM) |  | 
CON=C1CCC(NN2CCN(c3nc(=O)c4cc(C(F)(F)F)cc([N+](=O)[O-])c4s3)CC2)CC1 (stereo unspecified) | 0.028 (≈ 0.0559 µM) |  | 
CC(C)CNN1CCN(c2nc(=O)c3cc(C(F)(F)F)cc([N+](=O)[O-])c3s2)CC1 | 0.0281 (≈ 0.0651 µM) |  | 
O=C(NN1CCN(c2nc(=O)c3cc(C(F)(F)F)cc([N+](=O)[O-])c3s2)CC1)c1ccc(OC(F)(F)F)cc1 | 0.965 (≈ 1.71 µM) |  | 
O=c1nc(N2CCN(NCc3ccc(C(F)(F)F)cc3)CC2)sc2c([N+](=O)[O-])cc(C(F)(F)F)cc12 | < 0.016 | > 64 | 
CCC(CC)CN(CC(CC)CC)N1CCN(c2nc(=O)c3cc(C(F)(F)F)cc([N+](=O)[O-])c3s2)CC1 | 0.49 (≈ 0.902 µM) |  | 
O=c1nc(N2CCN(NCc3ccc(O)cc3)CC2)sc2c([N+](=O)[O-])cc(C(F)(F)F)cc12 | 0.9 (≈ 1.87 µM) |  | 
O=c1nc(N2CCN(NS(=O)(=O)C3CCCCC3)CC2)sc2c([N+](=O)[O-])cc(C(F)(F)F)cc12 | > 1 |  | 
O=c1nc(N2CCN(NCc3cc(F)cc(F)c3)CC2)sc2c([N+](=O)[O-])cc(C(F)(F)F)cc12 | < 0.016 | > 64 | 
CON=C1CCC(CNN2CCN(c3nc(=O)c4cc(C(F)(F)F)cc([N+](=O)[O-])c4s3)CC2)CC1 (stereo unspecified) | 0.057 (≈ 0.111 µM) |  | 
O=c1nc(N2CCN(NCCC3CCCCC3)CC2)sc2c([N+](=O)[O-])cc(C(F)(F)F)cc12 | < 0.016 | > 64 | inhibition at 10 µM (hERG (KCNH2)): 76.4%
CC(C)(C)c1ccc(CNN2CCN(c3nc(=O)c4cc(C(F)(F)F)cc([N+](=O)[O-])c4s3)CC2)cc1 | < 0.016 | > 64 | 
NNC(=O)c1ccncc1 [ISONIAZID] | 0.0366 (≈ 0.267 µM) |  | 
O=c1nc(N2CCN(CC3CCCCC3)CC2)sc2c([N+](=O)[O-])cc(C(F)(F)F)cc12 [MACOZINONE] | < 0.016 | > 64 | 
CO[C@H]1/C=C/O[C@@]2(C)Oc3c(C)c(O)c4c(O)c(c(/C=N/N5CCN(C)CC5)c(O)c4c3C2=O)NC(=O)/C(C)=C\C=C\[C@H](C)[C@H](O)[C@@H](C)[C@@H](O)[C@@H](C)[C@H](OC(C)=O)[C@@H]1C [RIFAMPIN] | 0.0382 (≈ 0.0464 µM) |  | 
